Literature values as cited in patent publication US8993607B2, “Therapeutic compounds” (Rutgers, The State University of New Jersey, priority 2007, dated 2015).

Columns and labels:
[1] = test system: human breast cancer cell lines HBC-4, BSY-1, HBC-5, MCF-7, and MDA-MB-231; settings: range over HBC-4, BSY-1, HBC-5, MCF-7, MDA-MB-231; Sohda et al., 2005
[2] = target: telomerase; settings: read-out: telomerase inhibitory activity IC50
[3] = test system: SK-N-AS; settings: human neuroblastoma cell line SK-N-AS; Binz et al., 2005; read-out: cytotoxicity IC50
[4] = test system: LANS; settings: human neuroblastoma cell line LANS; Binz et al., 2005; read-out: cytotoxicity IC50
[5] = test system: WAC2; settings: human neuroblastoma cell line WAC2; Binz et al., 2005; read-out: cytotoxicity IC50
[6] = test system: LAN1; settings: human neuroblastoma cell line LAN1; Binz et al., 2005; read-out: cytotoxicity IC50
[7] = test system: MiaPaCa; settings: human pancreatic carcinoma MiaPaCa; Liu et al., 2005; read-out: cytotoxicity IC50
[8] = test system: K62 leukemia cells; settings: Tauchi et al., 2003
[9] = test system: natural bone marrow CD34-positive cells; settings: compared, Tauchi et al., 2003

In the case of CC[C@H](C)[C@@H]1NC(=O)c2nc(oc2-c2ccccc2)-c2csc(n2)-c2coc(n2)-c2coc(n2)-c2coc(n2)CNC(=O)[C@@H](C(C)C)NC1=O [YM-216391], the GI50 [1] is listed as 15 to 33 nM.
In the case of Cc1oc2nc1-c1nc(co1)-c1nc(co1)-c1nc(co1)-c1nc(co1)-c1nc(co1)C1=NC(CS1)c1nc-2c(C)o1 (stereo not drawn) [telomestatin], the IC50 [2] is listed as 5 nM, the IC50 [3] is listed as 800 nM and the IC50 [4] is listed as 2500 nM. For the same compound, the IC50 [5] was 3200 nM, the IC50 [6] was 4000 nM and the IC50 [7] was 500 nM. For the same compound, the plating efficiency [8] was “suppress the plating efficiency” and the “effect on burst-forming units—erythrocyte (BFU-E) and colony-forming units—granulocyte/macrophage (CFU-GM)” value [9] was “much lesser effect”.
